Laboratory results published in PMC12420824, “Discovery of a selective alpha-kinase 1 inhibitor for the rare genetic disease ROSAH syndrome” (Nature Communications, 2025).

Key:
CK2a2 = CK2a2 (Homo sapiens, UniProt P19784); assay: HotSpot kinase assay; details: read-out: % Enzyme Activity (relative to DMSO control), 10 uM
Source text: (§1) Additionally, a 10-dose dilution series of staurosporine and other enzyme-appropriate compounds were included as positive control inhibitors.

PAK1 = PAK1 (Homo sapiens, UniProt Q13153); assay: HotSpot kinase assay; details: read-out: % Enzyme Activity (relative to DMSO control), 10 uM
Source text: as §1

AMPK (A1/B2/G2) = AMPK (A1/B2/G2) (Homo sapiens, UniProt Q13131); assay: HotSpot kinase assay; details: read-out: % Enzyme Activity (relative to DMSO control), 10 uM
Source text: as §1

RSK2 = RSK2 (Homo sapiens, UniProt P51812); assay: HotSpot kinase assay; details: read-out: % Enzyme Activity (relative to DMSO control), 10 uM
Source text: as §1

TXK = TXK (Homo sapiens, UniProt P42681); assay: HotSpot kinase assay; details: read-out: % Enzyme Activity (relative to DMSO control), 10 uM
Source text: as §1

AMPK(A2/B1/G1) = AMPK(A2/B1/G1) (Homo sapiens, UniProt P54646); assay: HotSpot kinase assay; details: read-out: % Enzyme Activity (relative to DMSO control), 10 uM
Source text: as §1

SRPK1 = SRPK1 (Homo sapiens, UniProt Q96SB4); assay: HotSpot kinase assay; details: read-out: % Enzyme Activity (relative to DMSO control), 10 uM
Source text: as §1

MELK = MELK (Homo sapiens, UniProt Q14680); assay: HotSpot kinase assay; details: read-out: % Enzyme Activity (relative to DMSO control), 10 uM
WNK3 = WNK3 (Homo sapiens, UniProt Q9BYP7); assay: HotSpot kinase assay; details: read-out: % Enzyme Activity (relative to DMSO control), 10 uM
PKG1a = PKG1a (Homo sapiens, UniProt Q13976); assay: HotSpot kinase assay; details: read-out: % Enzyme Activity (relative to DMSO control), 10 uM
Source text: as §1

TNK1 = TNK1 (Homo sapiens, UniProt Q13470); assay: HotSpot kinase assay; details: read-out: % Enzyme Activity (relative to DMSO control), 10 uM
Source text: as §1

PKCa = PKCa (Homo sapiens, UniProt P17252); assay: HotSpot kinase assay; details: read-out: % Enzyme Activity (relative to DMSO control), 10 uM
Source text: as §1

GRK1 = GRK1 (Homo sapiens, UniProt Q15835); assay: HotSpot kinase assay; details: read-out: % Enzyme Activity (relative to DMSO control), 10 uM
Source text: as §1

FRK/PTK5 = FRK/PTK5 (Homo sapiens, UniProt P42685); assay: HotSpot kinase assay; details: read-out: % Enzyme Activity (relative to DMSO control), 10 uM
Source text: as §1

STK32B/YANK2 = STK32B/YANK2 (Homo sapiens, UniProt Q9NY57); assay: HotSpot kinase assay; details: read-out: % Enzyme Activity (relative to DMSO control), 10 uM
Source text: as §1

TEC = TEC (Homo sapiens, UniProt P42680); assay: HotSpot kinase assay; details: read-out: % Enzyme Activity (relative to DMSO control), 10 uM
Source text: as §1

IR = IR (Homo sapiens, UniProt P06213); assay: HotSpot kinase assay; details: read-out: % Enzyme Activity (relative to DMSO control), 10 uM
Source text: as §1

TRPM7/CHAK1 = TRPM7/CHAK1 (Homo sapiens, UniProt Q96QT4); assay: HotSpot kinase assay; details: read-out: % Enzyme Activity (relative to DMSO control), 10 uM
ABL1 = ABL1 (Homo sapiens, UniProt P00519); assay: HotSpot kinase assay; details: read-out: % Enzyme Activity (relative to DMSO control), 10 uM
Source text: as §1

p70S6Kb/RPS6KB2 = p70S6Kb/RPS6KB2 (Homo sapiens, UniProt Q9UBS0); assay: HotSpot kinase assay; details: read-out: % Enzyme Activity (relative to DMSO control), 10 uM
ARK5/NUAK1 = ARK5/NUAK1 (Homo sapiens, UniProt O60285); assay: HotSpot kinase assay; details: read-out: % Enzyme Activity (relative to DMSO control), 10 uM
Source text: as §1

P38d/MAPK13 = P38d/MAPK13 (Homo sapiens, UniProt O15264); assay: HotSpot kinase assay; details: read-out: % Enzyme Activity (relative to DMSO control), 10 uM
Source text: as §1

PDGFRa = PDGFRa (Homo sapiens, UniProt P16234); assay: HotSpot kinase assay; details: read-out: % Enzyme Activity (relative to DMSO control), 10 uM
Source text: as §1

ERK2/MAPK1 = ERK2/MAPK1 (Homo sapiens, UniProt P28482); assay: HotSpot kinase assay; details: read-out: % Enzyme Activity (relative to DMSO control), 10 uM
[1] = 28 day GLP toxicology study; assay type: in vivo; details: rats
CDK4/cyclin D3 = CDK4/cyclin D3 (Homo sapiens, UniProt P11802); assay: HotSpot kinase assay; details: read-out: % Enzyme Activity (relative to DMSO control), 10 uM
Source text: as §1

HIPK3 = HIPK3 (Homo sapiens, UniProt Q9H422); assay: HotSpot kinase assay; details: read-out: % Enzyme Activity (relative to DMSO control), 10 uM
RSK3 = RSK3 (Homo sapiens, UniProt Q15349); assay: HotSpot kinase assay; details: read-out: % Enzyme Activity (relative to DMSO control), 10 uM
Source text: as §1

ZIPK/DAPK3 = ZIPK/DAPK3 (Homo sapiens, UniProt O43293); assay: HotSpot kinase assay; details: read-out: % Enzyme Activity (relative to DMSO control), 10 uM
Source text: as §1

PKN3/PRK3 = PKN3/PRK3 (Homo sapiens, UniProt Q6P5Z2); assay: HotSpot kinase assay; details: read-out: % Enzyme Activity (relative to DMSO control), 10 uM
CDK4/cyclin D1 = CDK4/cyclin D1 (Homo sapiens, UniProt P11802); assay: HotSpot kinase assay; details: read-out: % Enzyme Activity (relative to DMSO control), 10 uM
Source text: as §1

CDK18/cyclin Y (PCTK3) = CDK18/cyclin Y (PCTK3) (Homo sapiens, UniProt Q07002); assay: HotSpot kinase assay; details: read-out: % Enzyme Activity (relative to DMSO control), 10 uM
Source text: as §1

p70S6K/RPS6KB1 = p70S6K/RPS6KB1 (Homo sapiens, UniProt P23443); assay: HotSpot kinase assay; details: read-out: % Enzyme Activity (relative to DMSO control), 10 uM
EPHB2 = EPHB2 (Homo sapiens, UniProt P29323); assay: HotSpot kinase assay; details: read-out: % Enzyme Activity (relative to DMSO control), 10 uM
Source text: as §1

EIF2AK1 = EIF2AK1 (Homo sapiens, UniProt Q9BQI3); assay: HotSpot kinase assay; details: read-out: % Enzyme Activity (relative to DMSO control), 10 uM
Source text: as §1

Sequence of ERK2/MAPK1 (P28482 whole entry): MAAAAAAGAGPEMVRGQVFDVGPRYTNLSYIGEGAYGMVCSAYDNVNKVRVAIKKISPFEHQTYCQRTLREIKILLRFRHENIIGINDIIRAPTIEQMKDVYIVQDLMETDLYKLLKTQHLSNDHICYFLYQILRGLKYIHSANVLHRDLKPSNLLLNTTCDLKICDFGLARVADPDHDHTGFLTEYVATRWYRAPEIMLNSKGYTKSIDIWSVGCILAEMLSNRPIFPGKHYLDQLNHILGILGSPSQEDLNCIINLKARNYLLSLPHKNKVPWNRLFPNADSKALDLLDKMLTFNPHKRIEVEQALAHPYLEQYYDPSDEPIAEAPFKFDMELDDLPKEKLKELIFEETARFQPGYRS
Sequence of PAK1 (Q13153 whole entry): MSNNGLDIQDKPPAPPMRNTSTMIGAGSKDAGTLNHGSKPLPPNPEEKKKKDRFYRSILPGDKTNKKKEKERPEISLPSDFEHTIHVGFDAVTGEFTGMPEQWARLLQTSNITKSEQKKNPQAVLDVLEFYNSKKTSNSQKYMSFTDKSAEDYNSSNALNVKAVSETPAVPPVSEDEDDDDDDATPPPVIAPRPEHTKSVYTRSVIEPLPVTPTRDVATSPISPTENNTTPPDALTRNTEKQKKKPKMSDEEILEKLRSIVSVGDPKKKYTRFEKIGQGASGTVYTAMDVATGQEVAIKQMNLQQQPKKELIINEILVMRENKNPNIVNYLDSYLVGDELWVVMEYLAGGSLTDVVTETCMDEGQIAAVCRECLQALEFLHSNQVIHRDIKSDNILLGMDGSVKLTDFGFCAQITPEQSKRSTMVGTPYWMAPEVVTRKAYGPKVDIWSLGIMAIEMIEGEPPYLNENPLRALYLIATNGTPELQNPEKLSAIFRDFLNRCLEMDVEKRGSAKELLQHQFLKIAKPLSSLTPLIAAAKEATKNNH
Sequence of HIPK3 (Q9H422 whole entry): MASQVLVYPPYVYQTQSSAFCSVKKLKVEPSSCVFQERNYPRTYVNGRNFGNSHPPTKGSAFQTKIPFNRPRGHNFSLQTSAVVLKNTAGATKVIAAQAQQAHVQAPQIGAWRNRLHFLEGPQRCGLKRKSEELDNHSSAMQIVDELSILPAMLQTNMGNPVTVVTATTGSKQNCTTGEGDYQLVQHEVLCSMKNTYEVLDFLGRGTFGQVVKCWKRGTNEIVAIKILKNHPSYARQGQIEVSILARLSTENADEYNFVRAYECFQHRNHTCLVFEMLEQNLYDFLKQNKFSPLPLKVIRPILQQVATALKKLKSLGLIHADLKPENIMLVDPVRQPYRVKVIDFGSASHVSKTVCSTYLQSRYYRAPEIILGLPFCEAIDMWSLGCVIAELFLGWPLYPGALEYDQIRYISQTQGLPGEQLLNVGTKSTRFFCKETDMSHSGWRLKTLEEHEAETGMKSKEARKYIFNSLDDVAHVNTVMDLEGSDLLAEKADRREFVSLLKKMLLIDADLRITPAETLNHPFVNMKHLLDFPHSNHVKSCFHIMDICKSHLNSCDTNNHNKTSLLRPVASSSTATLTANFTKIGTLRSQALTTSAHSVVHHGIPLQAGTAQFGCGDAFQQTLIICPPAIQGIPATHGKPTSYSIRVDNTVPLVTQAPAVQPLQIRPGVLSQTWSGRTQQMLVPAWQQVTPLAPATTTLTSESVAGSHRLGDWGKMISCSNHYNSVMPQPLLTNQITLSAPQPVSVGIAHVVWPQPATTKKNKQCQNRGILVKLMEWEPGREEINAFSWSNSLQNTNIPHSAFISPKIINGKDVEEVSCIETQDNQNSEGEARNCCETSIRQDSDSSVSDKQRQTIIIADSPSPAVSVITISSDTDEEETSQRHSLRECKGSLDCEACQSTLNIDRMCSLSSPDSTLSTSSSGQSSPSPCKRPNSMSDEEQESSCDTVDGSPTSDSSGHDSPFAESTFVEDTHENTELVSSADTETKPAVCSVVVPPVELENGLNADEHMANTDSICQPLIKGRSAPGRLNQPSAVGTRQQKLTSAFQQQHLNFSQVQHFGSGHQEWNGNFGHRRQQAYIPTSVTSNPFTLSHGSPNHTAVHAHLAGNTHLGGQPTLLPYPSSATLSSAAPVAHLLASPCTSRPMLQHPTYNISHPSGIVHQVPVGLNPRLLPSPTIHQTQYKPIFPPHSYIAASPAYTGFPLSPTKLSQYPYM
Sequence of RSK3 (Q15349 whole entry): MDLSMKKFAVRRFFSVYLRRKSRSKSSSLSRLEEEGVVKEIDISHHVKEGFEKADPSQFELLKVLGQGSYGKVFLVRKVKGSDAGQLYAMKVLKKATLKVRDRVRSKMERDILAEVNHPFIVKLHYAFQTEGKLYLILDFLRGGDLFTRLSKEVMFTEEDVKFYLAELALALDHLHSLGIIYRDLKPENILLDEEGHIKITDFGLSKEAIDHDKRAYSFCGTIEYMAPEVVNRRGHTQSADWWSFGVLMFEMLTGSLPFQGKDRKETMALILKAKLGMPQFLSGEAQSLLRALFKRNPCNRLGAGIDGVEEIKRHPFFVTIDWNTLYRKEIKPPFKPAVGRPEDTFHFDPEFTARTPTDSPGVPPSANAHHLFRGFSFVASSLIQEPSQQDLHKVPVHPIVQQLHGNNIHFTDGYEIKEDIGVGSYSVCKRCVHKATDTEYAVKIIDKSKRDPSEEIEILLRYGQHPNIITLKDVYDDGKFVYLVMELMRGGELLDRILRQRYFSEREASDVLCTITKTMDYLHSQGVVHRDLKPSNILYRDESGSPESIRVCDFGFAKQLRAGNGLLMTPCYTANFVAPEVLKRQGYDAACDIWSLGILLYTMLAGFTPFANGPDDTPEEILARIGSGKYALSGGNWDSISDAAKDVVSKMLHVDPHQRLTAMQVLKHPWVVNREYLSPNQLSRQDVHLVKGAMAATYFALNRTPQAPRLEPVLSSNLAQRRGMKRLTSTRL
Sequence of FRK/PTK5 (P42685 whole entry): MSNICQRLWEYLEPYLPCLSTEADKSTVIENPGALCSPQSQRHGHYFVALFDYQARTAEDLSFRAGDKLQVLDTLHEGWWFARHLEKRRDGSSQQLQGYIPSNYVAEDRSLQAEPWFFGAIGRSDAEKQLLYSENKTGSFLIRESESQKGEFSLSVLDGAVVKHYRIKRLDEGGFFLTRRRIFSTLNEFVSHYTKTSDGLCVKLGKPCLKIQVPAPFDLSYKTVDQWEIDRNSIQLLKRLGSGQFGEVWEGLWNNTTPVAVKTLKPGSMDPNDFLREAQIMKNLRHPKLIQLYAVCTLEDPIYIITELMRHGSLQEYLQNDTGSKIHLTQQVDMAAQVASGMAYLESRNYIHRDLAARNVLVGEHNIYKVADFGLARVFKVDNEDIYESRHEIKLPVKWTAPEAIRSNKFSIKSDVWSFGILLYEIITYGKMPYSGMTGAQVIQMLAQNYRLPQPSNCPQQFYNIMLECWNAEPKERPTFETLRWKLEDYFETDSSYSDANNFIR
Sequence of GRK1 (Q15835 whole entry): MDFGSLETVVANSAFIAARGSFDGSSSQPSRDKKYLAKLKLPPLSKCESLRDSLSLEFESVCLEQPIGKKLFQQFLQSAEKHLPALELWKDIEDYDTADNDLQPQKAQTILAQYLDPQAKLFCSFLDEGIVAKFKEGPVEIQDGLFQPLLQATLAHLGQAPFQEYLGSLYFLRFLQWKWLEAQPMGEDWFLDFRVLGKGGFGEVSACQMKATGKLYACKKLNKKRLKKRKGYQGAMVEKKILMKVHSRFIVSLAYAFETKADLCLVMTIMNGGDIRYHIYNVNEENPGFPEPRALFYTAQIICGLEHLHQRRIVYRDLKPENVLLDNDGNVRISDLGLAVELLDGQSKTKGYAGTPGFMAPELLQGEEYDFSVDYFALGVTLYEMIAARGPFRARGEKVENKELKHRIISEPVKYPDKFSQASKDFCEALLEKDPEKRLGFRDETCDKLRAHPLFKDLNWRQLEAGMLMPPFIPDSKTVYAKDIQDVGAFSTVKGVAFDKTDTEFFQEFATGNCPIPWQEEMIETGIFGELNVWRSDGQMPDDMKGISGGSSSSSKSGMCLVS
Sequence of p70S6Kb/RPS6KB2 (Q9UBS0 whole entry): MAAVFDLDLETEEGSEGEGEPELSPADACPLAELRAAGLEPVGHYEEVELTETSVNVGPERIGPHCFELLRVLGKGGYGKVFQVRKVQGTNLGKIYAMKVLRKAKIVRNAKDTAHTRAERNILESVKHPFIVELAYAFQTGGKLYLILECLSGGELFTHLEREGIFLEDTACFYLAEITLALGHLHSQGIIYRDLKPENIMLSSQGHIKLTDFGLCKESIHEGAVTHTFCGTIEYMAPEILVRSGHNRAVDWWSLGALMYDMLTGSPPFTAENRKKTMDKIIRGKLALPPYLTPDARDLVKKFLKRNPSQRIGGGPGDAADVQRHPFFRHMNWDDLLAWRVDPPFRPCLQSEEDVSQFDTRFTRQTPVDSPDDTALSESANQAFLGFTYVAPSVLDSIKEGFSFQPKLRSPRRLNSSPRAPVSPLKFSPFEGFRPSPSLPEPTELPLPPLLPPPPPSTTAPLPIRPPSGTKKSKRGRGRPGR
Sequence of TXK (P42681 whole entry): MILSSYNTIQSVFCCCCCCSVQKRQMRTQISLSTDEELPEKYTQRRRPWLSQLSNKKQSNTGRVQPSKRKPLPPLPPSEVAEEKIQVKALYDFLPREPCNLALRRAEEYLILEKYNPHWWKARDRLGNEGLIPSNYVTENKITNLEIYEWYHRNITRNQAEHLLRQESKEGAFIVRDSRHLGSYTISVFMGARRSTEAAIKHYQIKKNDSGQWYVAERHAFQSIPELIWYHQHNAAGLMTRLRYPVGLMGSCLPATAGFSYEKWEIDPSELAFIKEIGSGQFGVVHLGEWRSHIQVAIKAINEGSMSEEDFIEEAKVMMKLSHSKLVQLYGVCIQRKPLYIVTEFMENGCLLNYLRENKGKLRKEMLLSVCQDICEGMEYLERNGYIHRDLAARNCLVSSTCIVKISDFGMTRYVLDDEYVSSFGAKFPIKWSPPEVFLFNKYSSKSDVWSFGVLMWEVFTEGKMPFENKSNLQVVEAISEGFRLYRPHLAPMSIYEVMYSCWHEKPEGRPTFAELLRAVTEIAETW

Q: For `C#C[C@@](C)(c1ccc(Cl)cc1)c1csc(NC(=O)c2c(F)cc(N3CCNCC3)cc2F)n1` (stereo in doubt) [DF-003], which remaining activity at 10 µM (CK2a2) is on record?
A: 128%

Q: And the remaining activity at 10 µM (PAK1)?
A: 122%

Q: What about the remaining activity at 10 µM (AMPK (A1/B2/G2)) of the same compound?
A: 113%

Q: What about the remaining activity at 10 µM (RSK2) of the same compound?
A: 104%

Q: And the remaining activity at 10 µM (TXK)?
A: 73.7%

Q: What about the remaining activity at 10 µM (AMPK(A2/B1/G1)) of the same compound?
A: 83.4%

Q: And the remaining activity at 10 µM (SRPK1)?
A: 125%

Q: And the remaining activity at 10 µM (MELK)?
A: 96.6%

Q: And the remaining activity at 10 µM (WNK3)?
A: 95.4%

Q: And the remaining activity at 10 µM (PKG1a)?
A: 111%

Q: What about the remaining activity at 10 µM (TNK1) of the same compound?
A: 100%

Q: And the remaining activity at 10 µM (PKCa)?
A: 134%

Q: What about the remaining activity at 10 µM (GRK1) of the same compound?
A: 99.3%

Q: What about the remaining activity at 10 µM (FRK/PTK5) of the same compound?
A: 101%

Q: What about the remaining activity at 10 µM (STK32B/YANK2) of the same compound?
A: 99.6%

Q: And the remaining activity at 10 µM (TEC)?
A: 104%

Q: What about the remaining activity at 10 µM (IR) of the same compound?
A: 104%

Q: And the remaining activity at 10 µM (TRPM7/CHAK1)?
A: 104%

Q: What about the remaining activity at 10 µM (ABL1) of the same compound?
A: 87.7%

Q: What about the remaining activity at 10 µM (p70S6Kb/RPS6KB2) of the same compound?
A: 58.1%

Q: What about the remaining activity at 10 µM (ARK5/NUAK1) of the same compound?
A: 93.2%

Q: What about the remaining activity at 10 µM (P38d/MAPK13) of the same compound?
A: 104%

Q: What about the remaining activity at 10 µM (PDGFRa) of the same compound?
A: 87.6%

Q: What about the remaining activity at 10 µM (ERK2/MAPK1) of the same compound?
A: 91.9%

Q: What about the general immunosuppression [1] of the same compound?
A: no general immunosuppression was observed

Q: And the remaining activity at 10 µM (CDK4/cyclin D3)?
A: 91.1%

Q: And the remaining activity at 10 µM (HIPK3)?
A: 96.7%

Q: And the remaining activity at 10 µM (RSK3)?
A: 88.8%

Q: What about the remaining activity at 10 µM (ZIPK/DAPK3) of the same compound?
A: 68.5%

Q: And the remaining activity at 10 µM (PKN3/PRK3)?
A: 107%

Q: And the remaining activity at 10 µM (CDK4/cyclin D1)?
A: 91.3%

Q: And the remaining activity at 10 µM (CDK18/cyclin Y (PCTK3))?
A: 92.3%

Q: And the remaining activity at 10 µM (p70S6K/RPS6KB1)?
A: 69.6%

Q: What about the remaining activity at 10 µM (EPHB2) of the same compound?
A: 101%

Q: What about the remaining activity at 10 µM (EIF2AK1) of the same compound?
A: 91.9%
